This assay concerns the target T1, factor D (Homo sapiens, UniProt P00746).
T1 construct: made in house; host or cells: E. coli
Nature of the assay: factor D inhibition assay of Biological Example 2. In kind it is biochemical.
T1 sequence (P00746 26-253): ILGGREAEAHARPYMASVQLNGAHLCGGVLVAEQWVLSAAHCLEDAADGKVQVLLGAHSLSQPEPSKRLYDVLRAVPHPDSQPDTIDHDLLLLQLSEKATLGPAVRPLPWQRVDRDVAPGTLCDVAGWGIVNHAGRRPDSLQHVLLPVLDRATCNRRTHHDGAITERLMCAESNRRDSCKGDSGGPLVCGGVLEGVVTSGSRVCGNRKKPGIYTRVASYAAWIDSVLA
Regarding `C[C@@H](N)c1cccc(-c2cc(COc3ccccc3CC(=O)O)cc(OCC3CCOCC3)c2)c1F` [Example 214-D], the half-inhibitory concentration (IC50) (in general, the point on the concentration scale where inhibition reaches its midpoint) worked out at 0.018 µM.

As for `N[C@@H](c1cccc(-c2cccc(COc3ccccc3CC(=O)O)c2)c1)C1CC1` [Example 196-G], the IC50 was 1.08 µM.

`NCc1cccc(-c2ccnc(C(=O)Nc3ccccc3CC(=O)O)c2)c1` [Example 39, 2-(2-(4-(3-(Aminomethyl)phenyl)picolinamido)phenyl)acetic acid] gave an IC50 of 40.5 µM.

Take `CC(C)OCc1cc(COc2ccccc2CC(=O)O)cc(-c2cccc([C@@H](C)N)c2)c1` [Example 120-P]: the IC50 came to 0.007 µM.

For the compound `NCc1ccc(F)c(-c2ccnc(COc3ccccc3CC(=O)O)c2)c1` [Example 176, 2-(2-((4-(5-(Aminomethyl)-2-fluorophenyl)pyridin-2-yl)methoxy)phenyl)acetic acid], the concentration for half-maximal inhibition (IC50) was 5.74 µM.

The compound `C[C@@H](N)c1cccc(-c2cc(CCc3ccncc3)cc(COc3ccccc3CC(=O)O)c2)c1F` [Example 216-P] came in with an IC50 of 0.013 µM.

Take `N[C@H](CC(F)(F)F)c1cccc(-c2cccc(COc3ccccc3CC(=O)O)c2)c1` [Example 196-H]: the half-inhibitory concentration (IC50) stood at 1.18 µM.

For `C[C@@H](N)c1cccc(-c2cc(COc3ccccc3CC(=O)O)cc(OCC3(C)COC3)c2)c1F` [Example 262, (R)-2-(2-((3′-(1-aminoethyl)-2′-fluoro-5-((3-methyloxetan-3-yl)methoxy)-[1,1′-biphenyl]-3-yl)methoxy)phenyl)acetic acid], the IC50 was 0.041 µM.

Compound `NC(CF)c1cccc(-c2cccc(COc3ccccc3CC(=O)O)c2)c1F` (stereo not shown) [Example 215, 2-(2-((3′-(1-amino-2-fluoroethyl)-2′-fluoro-[1,1′-biphenyl]-3-yl)methoxy)phenyl)acetic acid] returned an IC50 of 0.008 µM.

In turn, `C[C@@H](N)c1cccc(-c2cc(COCC(F)(F)F)cc(COc3ccccc3CC(=O)O)c2)c1` [Example 120-N] had a concentration for half-maximal inhibition (IC50) of 0.015 µM.

`NCc1cccc(-c2cccc(COc3cc(CC4CC4)ccc3CC(=O)O)c2)c1` [Example 295-C, 2-(2-((3′-(aminomethyl)-[1,1′-biphenyl]-3-yl)methoxy)-4-(cyclopropylmethyl)phenyl)acetic acid] showed a half-inhibitory concentration (IC50) of 0.009 µM.

On to `C[C@@H](N)c1cccc(-c2cc(CNC3CC3)cc(COc3ccccc3CC(=O)O)c2)c1F` [Example 216-AD], for which the half-maximal inhibitory concentration (IC50) came to 0.02 µM.

Compound `C[C@@H](N)c1cccc(-c2cc(COc3ccccc3CC(=O)O)cc(N(C)C[C@@H]3CCCO3)c2)c1F` [Example 216-H] had an IC50 of 0.005 µM.

Compound `C[C@@H](N)c1cccc(-c2cc(N)c(F)c(COc3ccccc3CC(=O)O)c2)c1F` [Example 221 a), (R)-2-(2-((5-amino-3′-(1-aminoethyl)-2′,4-difluoro-[1,1′-biphenyl]-3-yl)methoxy)phenyl)acetic acid] gave a concentration for half-maximal inhibition (IC50) of 0.006 µM.

As for `C[C@H](O)[C@@H](N)c1cccc(-c2cccc(COc3ccccc3CC(=O)O)c2)c1` [Example 190-D], it took 0.981 µM to reach half-maximal inhibition (IC50).

`N[C@H](C(=O)O)c1cccc(-c2cccc(COc3ccccc3CC(=O)O)c2)c1` [Example 193, (S)-2-Amino-2-(3′-((2-(carboxymethyl)phenoxy)methyl)-[1,1′-biphenyl]-3-yl)acetic acid] registered an IC50 of 0.048 µM.

Compound `C[C@@H](N)c1cccc(-c2cc(COc3ccccc3CC(=O)O)cc(NC[C@H]3CCCO3)c2)c1F` [Example 153, 2-(2-((3′-((R)-1-Aminoethyl)-2′-fluoro-5-((((R)-tetrahydrofuran-2-yl)methyl)amino)-[1,1′-biphenyl]-3-yl)methoxy)phenyl)acetic acid] returned an IC50 of 0.004 µM.

With `NCc1cc(F)cc(-c2cc(NC[C@@H]3CCCO3)cc(C(=O)Nc3ccccc3CC(=O)O)c2)c1` [Example 79-F], the concentration for half-maximal inhibition (IC50) is 0.006 µM.

`CCC[C@@H](N)c1cccc(-c2cc(COc3ccccc3CC(=O)O)cc(NCC3CC3)c2)c1F` [Example 199-B] returned an IC50 of 0.069 µM.

Compound `C[C@@H](N)c1cccc(-c2cc(COc3ccccc3CC(=O)O)cc(N(C)CC3CCCO3)c2)c1F` (stereo partly shown) [Example 216-G] showed an IC50 of 0.007 µM.

The compound `NCc1cc(F)cc(-c2cc(NC3CCOCC3)cc(C(=O)Nc3ccccc3CC(=O)O)c2)c1` [Example 79-D] came in with a concentration for half-maximal inhibition (IC50) of 0.014 µM.

In turn, `Cn1ccc(COc2cc(C(=O)Nc3ccccc3CC(=O)O)cc(-c3cc(F)cc(CN)c3)c2)n1` [Example 69, 2-(2-(3′-(Aminomethyl)-5′-fluoro-5-((1-methyl-1H-pyrazol-3-yl)methoxy)-[1,1′-biphenyl]-3-ylcarboxamido)phenyl)acetic acid] returned a concentration for half-maximal inhibition (IC50) of 0.026 µM.

`NC(CF)c1cccc(-c2cccc(COc3ccccc3CC(=O)O)c2)c1` (single isomer, unassigned; (+)) [Example 190-B (+), (+)-2-(2-((3′-(1-amino-2-fluoroethyl)-[1, 1′-biphenyl]-3-yl)methoxy)phenyl)acetic acid] displayed a half-maximal inhibitory concentration (IC50) of 0.009 µM.

In the case of `Cc1cc(-c2cccc([C@H](N)CO)c2)cc(COc2ccccc2CC(=O)O)n1` [Example 185, (S)-2-(2-((4-(3-(1-Amino-2-hydroxyethyl)phenyl)-6-methylpyridin-2-yl)methoxy)phenyl)acetic acid], the IC50 was 0.024 µM.

Take `NCc1cc(-c2cccc(COc3ccccc3CC(=O)O)c2)ccc1F` [Example 138-D]: the 50% inhibitory concentration (IC50) stood at 0.223 µM.

Compound `C[C@@H](N)c1cccc(-c2cccc(COc3ccccc3CC(=O)O)c2)n1` [Example 138-I] yielded an IC50 of 0.301 µM.

`Cc1cc(CN)cc(-c2cccc(COc3ccccc3CC(=O)O)c2)c1` [Example 292-B, 2-(2-((3′-(aminomethyl)-5′-methyl-[1,1′-biphenyl]-3-yl)methoxy)phenyl)acetic acid] returned an IC50 of 0.07 µM.

`CCc1sc(-c2cc(F)cc(CN)c2)nc1C(=O)Nc1ccccc1CC(=O)O` [Example 36-C, 2-(2-(2-(3-(Aminomethyl)-5-fluorophenyl)-5-ethylthiazole-4-carboxamido)phenyl)acetic acid]: the 50% inhibitory concentration (IC50) is 0.036 µM.

Compound `N[C@H](CF)c1cccc(-c2cc(COc3ccccc3CC(=O)O)cc(NCC3CC3)c2)c1F` [Example 216-A] yielded an IC50 of 0.007 µM.

The compound `CCNc1cc(COc2ccccc2CC(=O)O)cc(-c2cccc([C@H](N)CO)c2)c1` [Example 129, (S)-2-(2-((3′-(1-Amino-2-hydroxyethyl)-5-(ethylamino)-[1,1′-biphenyl]-3-yl)methoxy)phenyl)acetic acid] displayed a half-inhibitory concentration (IC50) of 0.009 µM.

Take `CC(C)Cn1cc(-c2cc(COc3ccccc3CC(=O)O)cc(-c3cccc(CN)c3)c2)cn1` [Example 209-D]: the IC50 stood at 0.004 µM.

The compound `C[C@@H](N)c1cccc(-c2cc(COc3ccccc3CC(=O)O)cc(N(C)CC3CCCC3)c2)c1F` [Example 216-F] yielded an IC50 of 0.031 µM.

Compound `Cc1c(COc2ccccc2CC(=O)O)cccc1-c1cccc([C@@H](C)N)c1` [Example 116-N] gave an IC50 of 52.5 µM.

For the compound `NCc1nccc(-c2cccc(COc3ccccc3CC(=O)O)c2)n1` [Example 142-J], the IC50 is 0.067 µM.

For `COCCc1cc(COc2ccccc2CC(=O)O)cc(-c2cccc([C@@H](C)N)c2F)c1` [Example 120-V], the IC50 turned out to be 0.009 µM.

As for `COc1ccc(C)c(Nc2cc(C(=O)Nc3ccccc3CC(=O)O)cc(-c3cc(F)cc(CN)c3)c2)c1` [Example 14-A], half-maximal inhibition (IC50) was put at 0.015 µM.

For `C[C@@H](N)c1cccc(-c2cc(COc3ccccc3CC(=O)O)ccc2F)c1` [Example 124, (R)-2-(2-((3′-(1-Aminoethyl)-6-fluoro-[1,1′-biphenyl]-3-yl)methoxy)phenyl)acetic acid], the 50% inhibitory concentration (IC50) is 0.099 µM.

As for `N[C@H](CO)c1cccc(-c2cc(COc3ccccc3CC(=O)O)cc(C(O)C3CCCCC3)c2)c1` (single isomer, unassigned) [116-I b) (tr = 6.3 min)], the 50% inhibitory concentration (IC50) was 0.024 µM.

As to `NCc1cc(F)cc(-c2cc(Nc3ccn[nH]3)cc(C(=O)Nc3ccccc3CC(=O)O)c2)c1` [Example 79-G], inhibition was half-maximal at 0.022 µM (IC50).

The compound `C[C@@H](N)c1cccc(-c2cc(CCc3ccn(C)n3)cc(COc3ccccc3CC(=O)O)c2)c1F` [Example 218-I, (R)-2-(2-((3′-(1-aminoethyl)-2′-fluoro-5-(2-(1-methyl-1H-pyrazol-3-yl)ethyl)-[1,1′-biphenyl]-3-yl)methoxy)phenyl)acetic acid] displayed an IC50 of 0.01 µM.

For the compound `C[C@@H](N)c1cccc(-c2cc(COc3ccccc3CC(=O)O)cc(C(O)C(F)(F)F)c2)c1` (single isomer, unassigned) [116-H b) (tr = 3.0 min)], half-maximal inhibition (IC50) was put at 0.01 µM.

`CC(NCc1cc(COc2ccccc2CC(=O)O)cc(-c2cccc(CN)c2)c1)C(F)(F)F` (stereo not shown) [Example 208-F] gave an IC50 of 0.009 µM.

`CCC[C@@H](N)c1cccc(-c2cccc(COc3ccccc3CC(=O)O)c2)c1` [Example 190-E] yielded a half-maximal inhibitory concentration (IC50) of 0.034 µM.

In the case of `C[C@@H](N)c1cccc(-c2cc(COc3ccccc3CC(=O)O)cc(OCc3ccccn3)c2)c1F` [Example 213, (R)-2-(2-((3′-(1-Aminoethyl)-2′-fluoro-5-(pyridin-2-ylmethoxy)-[1,1′-biphenyl]-3-yl)methoxy)phenyl)acetic acid], the IC50 stood at 0.005 µM.

`Cc1ccc(-c2cccc([C@@H](C)N)c2F)cc1COc1ccccc1CC(=O)O` [Example 273-B, (R)-2-(2-((3′-(1-aminoethyl)-2′-fluoro-4-methyl-[1,1′-biphenyl]-3-yl)methoxy)phenyl)acetic acid] came in with an IC50 of 0.014 µM.

Consider `CC(C)n1cc(-c2cc(COc3ccccc3CC(=O)O)cc(-c3cccc(CN)c3)c2)cn1` [Example 209-C], for which the concentration for half-maximal inhibition (IC50) was found to be 0.005 µM.

For `NCc1cccc(-c2cc(Cl)cc(C(=O)Nc3ccccc3CC(=O)O)n2)c1` [Example 41, 2-(2-(6-(3-(Aminomethyl)phenyl)-4-chloropicolinamido)phenyl)acetic acid], half-maximal inhibition (IC50) required 0.074 µM.

The compound `CCc1ccc(NC(=O)c2cccc(-c3cc(F)cc(CN)c3)c2)c(CC(=O)O)c1` [Example 23-C, 2-(2-(3′-(Aminomethyl)-5′-fluoro-[1,1′-biphenyl]-3-ylcarboxamido)-5-ethylphenyl)acetic acid] gave an IC50 of 0.396 µM.

Consider `NCc1cccc(-c2ccc(-c3cccc(CN)c3)c(C(=O)Nc3ccccc3CC(=O)O)n2)c1` [Example 56-B, 2-(2-(3,6-bis(3-(Aminomethyl)phenyl)picolinamido)phenyl)acetic acid], for which the 50% inhibitory concentration (IC50) was 0.117 µM.

For the origin of these results see patent US20160145247A1, “Aminomethyl-Biaryl Derivatives Complement Factor D inhibitors and uses thereof” (NOVARTIS AG, priority 2013, published 2016).
